Series [1] in a line: Cytotoxicity against human RXF 393NL cells after 4 days by propidium iodide staining. As to conditions: 96 h.
Another series has as its system DU-145. The experiment in a line: Cytotoxicity against human PRXF DU145 cells after 4 days by propidium iodide staining. As to conditions: DU-145, 96 h.
A short description of series [2]: Cytotoxicity against human CXF 1103L cells after 4 days by propidium iodide staining. The note with it: 96 h.
The nature of series [3]: Cytotoxicity against human LXFA 983L cells after 4 days by propidium iodide staining. The note with it: 96 h.
Series [4] is described as follows: Cytotoxicity against human GXF251L cells after 4 days by propidium iodide staining. The note with it: GXF 251L, 96 h.
The nature of series [5]: Cytotoxicity against human PAXF 1657L cells after 4 days by propidium iodide staining. As to conditions: 96 h.
The nature of a further series: in vitro. The note with it: human, Caco-2.
The target of series [6] is Tyrosine-protein kinase ABL1 (Homo sapiens, UniProt P00519).
Description: Inhibition of Abl (unknown origin) using [gamma-33P]ATP after 30 mins by radiometric assay
Another series deals with Hs-578T. The experiment in a line: Cytotoxicity against human Hs578T cells by SRB assay. The class given is functional. (The SRB assay estimates cell density from bound dye.)
Series [7] is described as follows: Apparent permeability from basolateral to apical side in human Caco2 cells after 2 hrs by LC-MS/MS analysis. The note with it: Caco-2. The class given is ADME, cell-based. (Caco-2 cells form a polarised layer with tight junctions and transporters.)
In series [8] the target is Tyrosine-protein kinase Lck (Homo sapiens, UniProt P06239). The experiment in a line: Inhibition of Lck (unknown origin) using [gamma-33P]ATP after 30 mins by radiometric assay.
The nature of series [9]: Permeability from basolateral to apical side in human Caco2 cells assessed as compound recovery after 2 hrs by LC-MS/MS analysis. Format: ADME, cell-based. The note with it: Caco-2, read-out: permeability.
In series [10] the target is Proto-oncogene tyrosine-protein kinase Src (Homo sapiens, UniProt P12931).
Description: Inhibition of Src (unknown origin) using [gamma-33P]ATP after 30 mins by radiometric assay
The test system of the next series is K562. The experiment in a line: Cytotoxicity against human K562 cells by SRB assay. The class given is functional.
For another series, the target named is T1, Ephrin type-B receptor 4 (Homo sapiens, UniProt P54760).
T1 sequence (P54760 whole entry): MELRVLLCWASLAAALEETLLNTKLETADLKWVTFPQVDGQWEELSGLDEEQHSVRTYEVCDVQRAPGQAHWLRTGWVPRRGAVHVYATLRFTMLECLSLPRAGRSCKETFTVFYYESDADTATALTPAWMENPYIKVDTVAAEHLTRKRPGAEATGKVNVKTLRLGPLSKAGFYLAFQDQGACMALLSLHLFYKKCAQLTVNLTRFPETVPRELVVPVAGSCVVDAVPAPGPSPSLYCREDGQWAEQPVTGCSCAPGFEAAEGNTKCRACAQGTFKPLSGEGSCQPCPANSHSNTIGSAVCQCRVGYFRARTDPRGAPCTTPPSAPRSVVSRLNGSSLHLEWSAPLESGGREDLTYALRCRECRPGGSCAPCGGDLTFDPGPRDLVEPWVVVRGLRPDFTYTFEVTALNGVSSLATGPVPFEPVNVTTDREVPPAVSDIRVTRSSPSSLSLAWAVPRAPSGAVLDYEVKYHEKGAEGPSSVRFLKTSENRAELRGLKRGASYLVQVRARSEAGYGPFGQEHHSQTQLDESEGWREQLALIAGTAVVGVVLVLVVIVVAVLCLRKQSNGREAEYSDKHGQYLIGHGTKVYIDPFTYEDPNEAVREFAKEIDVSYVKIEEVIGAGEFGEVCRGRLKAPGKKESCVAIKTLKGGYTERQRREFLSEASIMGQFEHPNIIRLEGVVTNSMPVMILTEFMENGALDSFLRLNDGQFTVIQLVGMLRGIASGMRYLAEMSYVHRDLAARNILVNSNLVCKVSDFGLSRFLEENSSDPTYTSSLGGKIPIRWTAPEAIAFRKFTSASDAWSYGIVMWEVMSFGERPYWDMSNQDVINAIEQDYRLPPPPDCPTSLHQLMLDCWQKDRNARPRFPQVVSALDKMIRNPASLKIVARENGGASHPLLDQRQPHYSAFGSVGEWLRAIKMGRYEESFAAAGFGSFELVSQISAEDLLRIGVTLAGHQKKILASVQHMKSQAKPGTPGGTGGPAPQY

The nature of series [11]: Permeability from apical to basolateral side in human Caco2 cells assessed as compound recovery after 2 hrs by LC-MS/MS analysis. Format: ADME, cell-based. The note with it: Caco-2, read-out: permeability.
The nature of series [12]: Apparent permeability from apical to basolateral side in human Caco2 cells after 2 hrs by LC-MS/MS analysis. The class given is ADME, cell-based. As to conditions: Caco-2.
A further series deals with SNB-75. The experiment in a line: Cytotoxicity against human SNB75 cells by SRB assay. The class given is functional.
In series [13] the target is T2, Ephrin type-B receptor 4 (Homo sapiens) (UniProt P54760).
T2 sequence (whole entry): T1 sequence (P54760 whole entry)
The experiment in a line: Inhibition of EphB4 (unknown origin) transfected in CHO cells using Z'-LYTE TYR-1 peptide as substrate at 10 uM after 2 hrs by FRET assay. The class given is cell-based.

Chain of Tyrosine-protein kinase Lck (P06239 whole entry): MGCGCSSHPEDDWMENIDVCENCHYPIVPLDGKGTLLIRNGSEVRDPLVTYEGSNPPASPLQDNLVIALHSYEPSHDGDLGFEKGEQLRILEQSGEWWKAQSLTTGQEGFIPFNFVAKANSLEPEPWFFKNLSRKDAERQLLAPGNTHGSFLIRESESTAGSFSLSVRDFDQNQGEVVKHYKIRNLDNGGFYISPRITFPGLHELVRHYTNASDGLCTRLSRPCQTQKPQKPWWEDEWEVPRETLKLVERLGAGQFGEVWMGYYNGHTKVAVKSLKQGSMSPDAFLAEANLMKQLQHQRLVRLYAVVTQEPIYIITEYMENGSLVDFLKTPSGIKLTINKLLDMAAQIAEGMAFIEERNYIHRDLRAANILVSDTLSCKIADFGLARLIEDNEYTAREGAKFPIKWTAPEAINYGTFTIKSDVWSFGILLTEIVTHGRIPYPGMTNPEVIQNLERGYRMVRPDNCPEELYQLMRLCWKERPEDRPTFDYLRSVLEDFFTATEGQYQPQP
Chain of Tyrosine-protein kinase ABL1 (P00519 whole entry): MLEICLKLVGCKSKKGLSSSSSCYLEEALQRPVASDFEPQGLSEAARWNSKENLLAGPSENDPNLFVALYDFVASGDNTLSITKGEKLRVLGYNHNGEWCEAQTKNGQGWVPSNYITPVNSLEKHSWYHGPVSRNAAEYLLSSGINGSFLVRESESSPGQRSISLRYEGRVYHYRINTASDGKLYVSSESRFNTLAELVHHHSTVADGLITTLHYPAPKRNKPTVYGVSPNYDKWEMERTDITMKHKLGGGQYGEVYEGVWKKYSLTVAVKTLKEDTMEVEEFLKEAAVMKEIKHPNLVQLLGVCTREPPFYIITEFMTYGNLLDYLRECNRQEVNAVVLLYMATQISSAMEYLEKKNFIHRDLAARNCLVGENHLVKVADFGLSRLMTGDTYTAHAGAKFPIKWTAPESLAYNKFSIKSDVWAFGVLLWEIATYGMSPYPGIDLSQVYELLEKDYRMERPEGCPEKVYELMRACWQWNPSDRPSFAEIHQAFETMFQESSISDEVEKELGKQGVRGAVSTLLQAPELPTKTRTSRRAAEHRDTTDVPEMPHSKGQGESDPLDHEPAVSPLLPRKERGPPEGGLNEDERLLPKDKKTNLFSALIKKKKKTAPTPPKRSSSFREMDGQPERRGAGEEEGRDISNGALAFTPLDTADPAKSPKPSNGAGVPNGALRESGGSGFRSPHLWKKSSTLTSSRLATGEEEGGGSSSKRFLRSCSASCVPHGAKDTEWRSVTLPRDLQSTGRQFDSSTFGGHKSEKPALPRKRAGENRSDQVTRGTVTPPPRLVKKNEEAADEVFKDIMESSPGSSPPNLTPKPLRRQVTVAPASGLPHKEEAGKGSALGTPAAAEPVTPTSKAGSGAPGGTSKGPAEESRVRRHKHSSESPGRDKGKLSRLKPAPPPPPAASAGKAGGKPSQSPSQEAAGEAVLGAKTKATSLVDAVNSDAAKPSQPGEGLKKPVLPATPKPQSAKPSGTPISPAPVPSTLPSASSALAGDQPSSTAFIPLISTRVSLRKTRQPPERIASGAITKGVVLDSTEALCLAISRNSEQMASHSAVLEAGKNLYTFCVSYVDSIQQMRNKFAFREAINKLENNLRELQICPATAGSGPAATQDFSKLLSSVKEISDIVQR
Chain of Proto-oncogene tyrosine-protein kinase Src (P12931 2-536 limits assumed): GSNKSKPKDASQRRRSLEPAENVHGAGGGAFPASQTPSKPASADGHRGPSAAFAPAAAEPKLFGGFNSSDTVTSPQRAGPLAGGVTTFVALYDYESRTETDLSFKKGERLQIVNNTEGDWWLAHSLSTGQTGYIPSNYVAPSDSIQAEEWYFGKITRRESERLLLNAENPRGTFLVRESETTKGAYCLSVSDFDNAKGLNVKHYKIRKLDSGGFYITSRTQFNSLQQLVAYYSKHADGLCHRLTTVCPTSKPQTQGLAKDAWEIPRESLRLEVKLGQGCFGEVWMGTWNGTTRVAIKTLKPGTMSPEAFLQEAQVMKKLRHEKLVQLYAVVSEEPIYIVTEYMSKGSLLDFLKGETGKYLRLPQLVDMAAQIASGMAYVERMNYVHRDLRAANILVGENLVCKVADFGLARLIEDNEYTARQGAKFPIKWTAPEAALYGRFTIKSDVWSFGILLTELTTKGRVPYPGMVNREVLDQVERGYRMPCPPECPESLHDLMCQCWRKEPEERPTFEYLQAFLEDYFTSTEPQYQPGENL
Description for in vitro: Efflux ratio of apparent permeability from basolateral to apical side to apical to basolateral side in human Caco2 cells

With `Cc1nc(Nc2ncc(C(=O)Nc3c(C)cccc3Cl)s2)cc(N2CCN(CCO)CC2)n1` [DASATINIB], the IC50 (usually the concentration that inhibits the measured activity by half) in series [1] was 21.7 nM; with DU-145, 62.3 nM; in series [2] it was 4360 nM; in [3], 56.5 nM; in series [4], 2250 nM; in [5], 121 nM.
Regarding `COc1ccccc1-n1c(-c2cc(O)ccc2C)cn2c3c(=O)[nH]c(=O)n(C)c3nc12`, the efflux ratio – broadly, a quotient of directional permeabilities that is used to spot active efflux – in the series “in vitro” came to 7.3. Besides, the IC50 amounted to 0.92 nM in series [6]; 1760 nM in series [1]; 2700 nM in the series on DU-145; 32600 nM in series [2]; 1.3 nM in series [8]; 9160 nM in [3]. Besides, the IC50 in series [10] was 1.14 nM; against Ephrin type-B receptor 4, 130 nM; in series [4] it was 20200 nM; in [5], 2010 nM. Further, the GI50 (as a rule, the concentration that inhibits growth by half) is 562 nM in the series with Hs-578T, 309 nM in the series on K562 and 128 nM in the series on SNB-75. Moreover, the Papp B→A (in general, how fast a substance crosses the layer from the basolateral side) at 2 h in series [7] is 23 ×10⁻⁶ cm/s. The values for the recovery at 2 h in series [9] and in series [11] were 74% and 51%, respectively. The Papp A→B – broadly, how fast a substance crosses the layer from the apical side – at 2 h in series [12] was determined as 3.13 ×10⁻⁶ cm/s.
For the compound `COc1ccccc1-n1c(-c2cccc(Cl)c2)cn2c3c(=O)[nH]c(=O)n(C)c3nc12`, the inhibition (commonly the drop in the measured response relative to a control, in per cent) in series [13] is 12%.
Turning to `CCCCn1c(-c2ccccc2Cl)cn2c3c(=O)[nH]c(=O)n(C)c3nc12`, the IC50 was determined as 2930 nM in [1]; 3180 nM with DU-145; 1140 nM in [2]; 1620 nM in series [3]; 18200 nM in series [4]; 4940 nM in series [5].
Regarding `COc1ccccc1-n1c(-c2ccccc2)cn2c3c(=O)[nH]c(=O)n(C)c3nc12`, the Papp B→A at 2 h in [7] came out at 35.8 ×10⁻⁶ cm/s. Moreover, the recovery at 2 h in series [9] turned out to be 76%; in [11], 71%. In addition, the Papp A→B at 2 h in series [12] came out at 32.3 ×10⁻⁶ cm/s.
The matching figures for `CCCCn1c(-c2ccccc2)cn2c3c(=O)[nH]c(=O)n(C)c3nc12`: 42.5 ×10⁻⁶ cm/s, 78%, 69% and 42.5 ×10⁻⁶ cm/s.
Take `CCCCn1c(-c2ccccc2C(F)(F)F)cn2c3c(=O)[nH]c(=O)n(C)c3nc12`: in series [13], the inhibition was found to be 15%.
For `CCCCCn1c(-c2ccccc2C)cn2c3c(=O)[nH]c(=O)n(C)c3nc12`, the IC50 was 5580 nM in [1]; 6970 nM in the series with DU-145; 2570 nM in series [2]; 2720 nM in [3]; 4980 nM in [4]; 5880 nM in series [5].
Consider `CCCCn1c(-c2cccc(Cl)c2)cn2c3c(=O)[nH]c(=O)n(C)c3nc12`, for which the inhibition in series [13] worked out at 22%.
In the case of `CCCCn1c(-c2ccc(F)cc2C)cn2c3c(=O)[nH]c(=O)n(C)c3nc12`, the IC50 in series [1] worked out at 8690 nM; in the series with DU-145 it was 9590 nM; in series [2] it was 4040 nM; in series [8], 617 nM; in [3], 6020 nM; in series [4], 14900 nM. In series [5], this compound had an IC50 of 9460 nM.
Compound `CCCCn1c(-c2c(C)cccc2C)cn2c3c(=O)[nH]c(=O)n(C)c3nc12` registered an inhibition in series [13] of 49%.

The record behind these values is ChEMBL document CHEMBL2331203, “Optimization of inhibitors of the tyrosine kinase EphB4. 2. Cellular potency improvement and binding mode validation by X-ray crystallography” (J Med Chem, 2013).
